Strand notation (5' to 3'): a small letter for the sugar, then the base; units joined by * are phosphorothioate-linked, units joined directly phosphodiester-linked; [ ] holds rarer units or linkages, { } end groups; capitals alone tell only the bases. e = 2'-O-(2-methoxyethyl) (MOE); k = constrained ethyl (cEt); [5mC] = 5-methylcytosine; d = 2'-deoxy (DNA)
Tested on: human PKK mRNA
Assay: Antisense inhibition of human PKK mRNA in HepaRG cells, 1,000 nM, MOE/deoxy/cEt oligonucleotides (Example 3)
Type: cell-based
Summary of the method: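 Readout is percent PKK mRNA reduction against untreated controls, by real-time PCR (RTS3454) adjusted for total RNA via RIBOGREEN. Oligonucleotides, phosphorothioate gapmers of 16 nucleosides with cEt, MOE and deoxy sugars, were delivered at 1,000 nM by electroporation to 20,000 HepaRG cells/well for roughly 24 h.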

[1] = Table 21 experiment, HepaRG cells, electroporation with 1,000 nM antisense oligonucleotide, approx. 24 hours, PKK mRNA by RT-PCR (RTS3454), relative to untreated control cells
[2] = HepaRG cells, 1,000 nM antisense oligonucleotide, Table 29
[3] = Table 30, human PKK mRNA, HepaRG cells, 1,000 nM antisense oligonucleotide
[4] = HepaRG cells, electroporation with 1,000 nM antisense oligonucleotide, approx. 24 hours, PKK mRNA by RT-PCR (RTS3454), relative to untreated control cells, Table 25 experiment
[5] = Table 20, HepaRG cells, electroporation with 1,000 nM antisense oligonucleotide, approximately 24 hours, PKK mRNA by RT-PCR (RTS3454), relative to untreated control cells
[6] = Table 22 experiment, HepaRG cells, electroporation with 1,000 nM antisense oligonucleotide, approx. 24 hours, PKK mRNA by RT-PCR (RTS3454), relative to untreated control cells
[7] = Table 19, HepaRG cells, electroporation with 1,000 nM antisense oligonucleotide, approximately 24 hours, PKK mRNA by RT-PCR (RTS3454), relative to untreated control cells
[8] = Table 27, HepaRG cells, 1,000 nM antisense oligonucleotide, human PKK mRNA
[9] = Table 28, HepaRG cells, 1,000 nM antisense oligonucleotide, human PKK mRNA
[10] = PKK mRNA, HepaRG cells, 1,000 nM antisense oligonucleotide, Table 31
[11] = HepaRG cells, electroporation with 1,000 nM antisense oligonucleotide, approximately 24 hours, primer probe set RTS3454, relative to untreated control cells, experiment of Table 23

547822 (eG*e[5mC]*kA*dA*d[5mC]*d[5mC]*dA*dA*dA*d[5mC]*d[5mC]*dT*dT*kT*kT*e[5mC]; antisense) [compound 547822]
% inhibition [1]: 71%

548584 (eT*eG*kA*dT*dG*dA*dA*dG*dT*dT*d[5mC]*d[5mC]*dA*k[5mC]*k[5mC]*eT; antisense) [compound 548584]
% inhibition [2]: 47%

548569 (eA*e[5mC]*kT*d[5mC]*dA*dT*dT*dG*dG*dT*d[5mC]*dT*dA*k[5mC]*kA*eG; antisense) [compound 548569]
% inhibition [2]: 41%

548411 (antisense e[5mC]*eA*kG*dT*dA*dT*d[5mC]*dA*d[5mC]*dT*dG*dT*dA*k[5mC]*kT*eA) [compound 548411]
% inhibition [3]: 72%

548163 (eA*e[5mC]*k[5mC]*dT*d[5mC]*dG*d[5mC]*dA*dT*dT*dG*dT*d[5mC]*kA*kG*e[5mC]; antisense) [compound 548163]
% inhibition [4]: 46%

547892 (e[5mC]*eA*kA*dT*dT*dG*dT*dT*d[5mC]*d[5mC]*dG*dG*dT*kA*k[5mC]*eT; antisense) [compound 547892]
% inhibition [5]: 29% | % inhibition [6]: 28%

547856 (antisense e[5mC]*eA*kT*dA*dT*d[5mC]*dA*dA*d[5mC]*dT*d[5mC]*d[5mC]*dT*kT*kT*eA) [compound 547856]
% inhibition [5]: 93% | % inhibition [6]: 51%

548161 (e[5mC]*eT*k[5mC]*dG*d[5mC]*dA*dT*dT*dG*dT*d[5mC]*dA*dG*k[5mC]*k[5mC]*e[5mC]; antisense) [compound 548161]
% inhibition [4]: 59%

547888 (eT*e[5mC]*k[5mC]*dG*dG*dT*dA*d[5mC]*dT*d[5mC]*dT*dG*d[5mC]*k[5mC]*kT*eT; antisense) [compound 547888]
% inhibition [6]: 99%

548391 (eG*eT*kA*d[5mC]*dA*dT*dG*dA*d[5mC]*dT*d[5mC]*d[5mC]*dA*kG*kT*eG; antisense) [compound 548391]
% inhibition [3]: 34%

548397 (eG*eG*kA*dG*d[5mC]*dA*dG*dT*dG*d[5mC]*dA*dG*dG*kT*kA*eA; antisense) [compound 548397]
% inhibition [3]: 1%

548118 (antisense eT*e[5mC]*kT*d[5mC]*dA*dT*dG*d[5mC]*dT*dG*dG*dT*dG*kA*k[5mC]*eT) [compound 548118]
% inhibition [7]: 47%

547755 (eT*eA*kA*dA*dA*dA*dT*dG*dA*dA*d[5mC]*dG*dG*kT*k[5mC]*eT; antisense) [compound 547755]
% inhibition [1]: 0%

548319 (e[5mC]*e[5mC]*kT*d[5mC]*dA*dT*d[5mC]*dT*d[5mC]*dA*dG*dT*dA*kT*kG*eA; antisense) [compound 548319]
% inhibition [8]: 26%

548468 (e[5mC]*eA*kA*d[5mC]*dA*dT*d[5mC]*dA*d[5mC]*dT*dG*dT*dA*k[5mC]*k[5mC]*eT; antisense) [compound 548468]
% inhibition [9]: 6%

548497 (antisense e[5mC]*e[5mC]*kT*dT*d[5mC]*dA*dT*dA*d[5mC]*d[5mC]*d[5mC]*d[5mC]*dT*k[5mC]*kA*e[5mC]) [compound 548497]
% inhibition [9]: 26%

548365 (antisense eT*eG*kT*dA*d[5mC]*dT*d[5mC]*d[5mC]*dA*d[5mC]*d[5mC]*dT*d[5mC]*kA*k[5mC]*eG) [compound 548365]
% inhibition [8]: 55%

548329 (antisense eA*eG*k[5mC]*dA*dG*dA*dT*d[5mC]*dT*dG*dG*dG*dT*kT*kG*eT) [compound 548329]
% inhibition [8]: 59%

548263 (antisense e[5mC]*eT*k[5mC]*dT*dA*d[5mC]*dA*dT*dA*d[5mC]*dT*d[5mC]*dA*kG*kG*eA) [compound 548263]
% inhibition (HepaRG cells, electroporation with 1,000 nM antisense oligonucleotide, approx. 24 hours, PKK mRNA by RT-PCR (RTS3454), relative to untreated control cells, Table 26 experiment): 62%

548342 (antisense eG*eG*kA*dA*dG*dA*d[5mC]*dT*dT*d[5mC]*d[5mC]*d[5mC]*dT*k[5mC]*kT*eG) [compound 548342]
% inhibition [8]: 0%

548395 (eA*eT*k[5mC]*d[5mC]*dT*dT*d[5mC]*d[5mC]*d[5mC]*d[5mC]*dT*d[5mC]*dG*k[5mC]*kA*eA; antisense) [compound 548395]
% inhibition [3]: 0%

548153 (eT*eG*k[5mC]*dT*dG*dA*dA*dA*dG*d[5mC]*dG*dG*dG*k[5mC]*kT*eT; antisense) [compound 548153]
% inhibition [4]: 44%

548407 (e[5mC]*e[5mC]*kT*dA*dT*dA*dA*d[5mC]*dT*dG*d[5mC]*dT*dG*k[5mC]*kT*e[5mC]; antisense) [compound 548407]
% inhibition [3]: 24%

547818 (eG*eA*kT*dT*dG*dA*dA*d[5mC]*dT*dT*dG*d[5mC]*dT*kG*kG*eA; antisense) [compound 547818]
% inhibition [1]: 4%

548087 (antisense eA*e[5mC]*kT*dA*dA*dG*dG*dG*dA*d[5mC]*d[5mC]*dA*d[5mC]*k[5mC]*kT*eG) [compound 548087]
% inhibition [7]: 24%

547903 (e[5mC]*eT*k[5mC]*dA*dG*d[5mC]*dA*d[5mC]*d[5mC]*dT*dT*dT*dA*kT*kA*eG; antisense) [compound 547903]
% inhibition [5]: 62% | % inhibition [6]: 6%

548528 (antisense eT*eG*k[5mC]*dA*dG*dT*dG*dG*dT*d[5mC]*dA*dA*dG*k[5mC]*kA*eT) [compound 548528]
% inhibition [9]: 32%

547882 (e[5mC]*eT*kG*dG*d[5mC]*dA*dG*d[5mC]*dG*dA*dA*dT*dG*kT*kT*eA; antisense) [compound 547882]
% inhibition [5]: 91% | % inhibition [6]: 96%

548665 (antisense eG*e[5mC]*kT*d[5mC]*d[5mC]*d[5mC]*dG*dG*d[5mC]*d[5mC]*dA*dT*dT*kA*kG*e[5mC]) [compound 548665]
% inhibition [10]: 8%

548628 (antisense eG*eT*kA*dT*dG*dG*d[5mC]*dA*dG*dA*dG*d[5mC]*d[5mC]*k[5mC]*k[5mC]*eT) [compound 548628]
% inhibition [10]: 9%

547781 (antisense e[5mC]*eA*kA*dT*dT*dG*d[5mC]*dT*dT*d[5mC]*dT*dT*dG*kG*kA*eG) [compound 547781]
% inhibition [1]: 49%

548156 (eT*e[5mC]*kA*dG*d[5mC]*d[5mC]*d[5mC]*d[5mC]*dT*dG*dG*dT*dT*kA*k[5mC]*eG; antisense) [compound 548156]
% inhibition [4]: 0%

548448 (eT*e[5mC]*kA*d[5mC]*dT*dG*dT*d[5mC]*d[5mC]*dT*dA*dT*dG*kT*k[5mC]*eA; antisense) [compound 548448]
% inhibition [3]: 61%

548394 (eG*eG*k[5mC]*dA*dG*dG*dA*dG*dA*d[5mC]*dT*d[5mC]*d[5mC]*kG*kT*eG; antisense) [compound 548394]
% inhibition [3]: 25%

547959 (eG*e[5mC]*kA*dG*dG*dT*dT*dA*dA*dA*dA*dG*dG*k[5mC]*kT*eA; antisense) [compound 547959]
% inhibition [11]: 60%

547934 (e[5mC]*eT*k[5mC]*dG*dA*dT*dT*dT*dT*d[5mC]*d[5mC]*dA*dT*kA*k[5mC]*eA; antisense) [compound 547934]
% inhibition [11]: 38%

548631 (antisense e[5mC]*eT*k[5mC]*dA*d[5mC]*dA*dA*dT*dA*d[5mC]*dT*dG*dA*kG*k[5mC]*e[5mC]) [compound 548631]
% inhibition [10]: 55%

548225 (eA*eG*kT*d[5mC]*dA*d[5mC]*d[5mC]*dA*dT*dA*dG*dA*d[5mC]*k[5mC]*k[5mC]*eA; antisense) [compound 548225]
% inhibition [4]: 48%

548549 (antisense eT*eG*kT*dG*d[5mC]*dA*dA*dT*d[5mC]*dA*dG*dG*dT*kG*kG*eA) [compound 548549]
% inhibition [2]: 56%
